Reference: US12459951B2, “Compounds that interact with RAS superfamily proteins for treatment of cancers, inflammatory diseases, rasopathies, and fibrotic disease” (SHY Therapeutics, LLC, priority 2022, dated 2025)

Key:
[1] = biological target: T1, Rac-1 (Homo sapiens, UniProt P63000); test: Ras GTP Binding Domain Inhibition Assay (Ras Superfamily Assay); settings: read-out: Rac-1: % inh.
T1 construct: made in house
Procedure, shortened: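 His-tagged GTPases immobilised on nickel-coated plates, pre-incubated with compound (20 μM single point, or serial dilution for IC50) 3 h at room temperature, with or without 10-30 μg/mL Sos (residues 556-1049) in the final hour. Bound Cy3- or Cy5-GTP (100 nM, 45 min) measured by fluorescence after washing.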

[2] = system: Erk1/2 phosphorylation; test: Erk1/2 Phosphorylation Assay (western blot), Panc-1; type: cell-based, human; settings: at 10 μM, * = activation
Procedure, shortened: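 Phospho-Erk1/2 (Thr202/Tyr204) was detected by western blot in lysates of Panc-1 cells (KRas G12D). These had 6 h, 37° C exposure to 10 μM compound or a dilution series for IC50, in 0.3% DMSO. Cells were either starved overnight in 0.5% FBS with a 15-min 1.5 ng/ml EGF pulse, or kept unstimulated in 10% FBS.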

`CO[C@H]1C[C@H](Nc2nc(-c3nccn3C)nn3cc(-c4cccc(CN)c4)c(-c4ccccc4)c23)C1` [Compound 204, 6-(3-(aminomethyl)phenyl)-N-((1r,3r)-3-methoxycyclobutyl)-2-(1-methyl-1H-imidazol-2-yl)-5-phenylpyrrolo[2,1-f][1,2,4]triazin-4-amine] was tested, and the inhibition at 20 µM [1] was 1 to 25% and the “% inh of Erk1/2 phosphorylation in Panc-1” value (shortened to “% inh”) [2] was “D* (85-100% activation)”.
For `CO[C@H]1C[C@H](Nc2nc(-c3nccn3C)nn3cc(-c4cccc(OCCN)c4)c(-c4ccccc4)c23)C1` [Compound 205, 6-(3-(2-Aminoethoxy)phenyl)-N-((1r,3r)-3-methoxycyclobutyl)-2-(1-methyl-1H-imidazol-2-yl)-5-phenylpyrrolo[2,1-f][1,2,4]triazin-4-amine], the inhibition at 20 µM [1] was 1 to 25% and the “% inh” value [2] was “D* (85-100% activation)”.
With `CO[C@H]1C[C@H](Nc2nc(-c3nccn3C)nn3cc(-c4ccc(CN)cc4)c(-c4ccccc4)c23)C1.Cl` [Compound 206, 6-(4-(Aminomethyl)phenyl)-N-((1r,3r)-3-methoxycyclobutyl)-2-(1-methyl-1H-imidazol-2-yl)-5-phenylpyrrolo[2,1-f][1,2,4]triazin-4-amine hydrochloride salt] the inhibition at 20 µM [1] was 1 to 25% and the “% inh” value [2] was “B (26-49% inhibition)”.
`CO[C@H]1C[C@H](Nc2nc(-c3nccn3C)nn3cc(-c4ccc(CCN)cc4)c(-c4ccccc4)c23)C1.Cl` [Compound 207, 6-(4-(2-Aminoethyl)phenyl)-N-((1r,3r)-3-methoxycyclobutyl)-2-(1-methyl-1H-imidazol-2-yl)-5-phenylpyrrolo[2,1-f][1,2,4]triazin-4-amine hydrochloride salt] was tested, and the inhibition at 20 µM [1] was 1 to 25% and the “% inh” value [2] was “D* (85-100% activation)”.
In the case of `CO[C@H]1C[C@H](Nc2nc(-c3nccn3C)nn3cc(-c4ccc(OCCN)cc4)c(-c4ccccc4)c23)C1.Cl` [Compound 208, 6-(4-(2-Aminoethoxy)phenyl)-N-((1r,3r)-3-methoxycyclobutyl)-2-(1-methyl-1H-imidazol-2-yl)-5-phenylpyrrolo[2,1-f][1,2,4]triazin-4-amine hydrochloride salt], the inhibition at 20 µM [1] was 26 to 49% and the “% inh” value [2] was “C* (46-84% activation)”.
For `COc1cccc(-c2cn3nc(-c4nccn4C)nc(N[C@H]4C[C@H](OC)C4)c3c2-c2ccccc2)c1C` [Compound 209, 6-(3-methoxy-2-methylphenyl)-N-((1r,3r)-3-methoxycyclobutyl)-2-(1-methyl-1H-imidazol-2-yl)-5-phenylpyrrolo[2,1-f][1,2,4]triazin-4-amine], the inhibition at 20 µM [1] was 26 to 49% and the “% inh” value [2] was “D (85-100% inhibition)”.
`CO[C@H]1C[C@H](Nc2nc(-c3nccn3C)nn3cc(-c4cccc5c4CCO5)c(-c4ccccc4)c23)C1` [Compound 210, 6-(2,3-Dihydrobenzofuran-4-yl)-N-((1r,3r)-3-methoxycyclobutyl)-2-(1-methyl-1H-imidazol-2-yl)-5-phenylpyrrolo[2,1-f][1,2,4]triazin-4-amine] was tested, and the inhibition at 20 µM [1] was 1 to 25% and the “% inh” value [2] was “D (85-100% inhibition)”.
For `Cc1c(-c2ccn(C)n2)cn2nc(-c3nccn3C)nc(N)c12` [Compound 211, 5-Methyl-2-(1-methyl-1H-imidazol-2-yl)-6-(1-methyl-1H-pyrazol-3-yl)pyrrolo[2,1-f][1,2,4]triazin-4-amine], the inhibition at 20 µM [1] was 50 to 75% and the “% inh” value [2] was “A* (1-25% activation)”.
In the case of `Cn1ccnc1-c1nc(NS(C)(=O)=O)c2c(-c3ccccc3)c(-c3ccccc3)cn2n1` [Compound 212, N-(2-(1-Methyl-1H-imidazol-2-yl)-5,6-diphenylpyrrolo[2,1-f][1,2,4]triazin-4-yl) methanesulfonamide], the inhibition at 20 µM [1] was 50 to 75% and the “% inh” value [2] was “B* (26-49% activation)”.
In the case of `COCCCS(=O)(=O)Nc1nc(-c2nccn2C)nn2cc(-c3ccccc3)c(-c3ccccc3)c12` [Compound 213, 3-Methoxy-N-(2-(1-methyl-1H-imidazol-2-yl)-5,6-diphenylpyrrolo[2,1-f][1,2,4]triazin-4-yl)propane-1-sulfonamide], the inhibition at 20 µM [1] was 50 to 75% and the “% inh” value [2] was “D* (85-100% activation)”.
For `CO[C@H]1C[C@H](S(=O)(=O)Nc2nc(-c3nccn3C)nn3cc(-c4ccccc4)c(-c4ccccc4)c23)C1` [Compound 214, (1r,3r)-3-Methoxy-N-(2-(1-methyl-1H-imidazol-2-yl)-5,6-diphenylpyrrolo[2,1-f][1,2,4]triazin-4-yl)cyclobutane-1-sulfonamide], the inhibition at 20 µM [1] was 50 to 75% and the “% inh” value [2] was “A* (1-25% activation)”.
In the case of `COc1ccnc(Nc2nc(-c3nccn3C)nn3cc(-c4ccn(CCNC(=O)CCCC[C@H]5SC[C@H]6NC(=O)N[C@H]65)n4)c(C)c23)c1` [Compound 215, N-(2-(3-(4-((4-methoxypyridin-2-yl)amino)-5-methyl-2-(1-methyl-1H-imidazol-2-yl)pyrrolo[2,1-f][1,2,4]triazin-6-yl)-1H-pyrazol-1-yl)ethyl)-5-((3aR,4R,6aS)-2-oxohexahydro-1H-thieno[3,4-d]imidazol-4-yl)pentanamide], the inhibition at 20 µM [1] was 76 to 100% and the “% inh” value [2] was “A* (1-25% activation)”.
For `COc1ccnc(Nc2nc(-c3nccn3CCNC(=O)CCCC[C@H]3SC[C@H]4NC(=O)N[C@H]43)nn3cc(-c4ccn(C)n4)c(C)c23)c1` [Compound 216, N-(2-(2-(4-((4-methoxypyridin-2-yl)amino)-5-methyl-6-(1-methyl-1H-pyrazol-3-yl)pyrrolo[2,1-f][1,2,4]triazin-2-yl)-1H-imidazol-1-yl)ethyl)-5-((3aR,4R,6aS)-2-oxohexahydro-1H-thieno[3,4-d]imidazol-4-yl)pentanamide], the inhibition at 20 µM [1] was 76 to 100% and the “% inh” value [2] was “C* (46-84% activation)”.
With `COc1ccnc(Nc2nc(-c3nccn3C)nn3cc(-c4c(F)cccc4OC)c(-c4ccccc4)c23)c1` [Compound 217, 6-(2-Fluoro-6-methoxyphenyl)-N-(4-methoxypyridin-2-yl)-2-(1-methyl-1H-imidazol-2-yl)-5-phenylpyrrolo[2,1-f][1,2,4]triazin-4-amine] the inhibition at 20 µM [1] was 50 to 75% and the “% inh” value [2] was “D* (85-100% activation)”.
With `CO[C@H]1C[C@H](Nc2nc(-c3nccn3C)nn3cc(-c4cnccc4C)c(-c4ccccc4)c23)C1` [Compound 218, N-((1r,3r)-3-Methoxycyclobutyl)-2-(1-methyl-1H-imidazol-2-yl)-6-(4-methylpyridin-3-yl)-5-phenylpyrrolo[2,1-f][1,2,4]triazin-4-amine] the inhibition at 20 µM [1] was 1 to 25% and the “% inh” value [2] was “D* (85-100% activation)”.
With `COc1cccc(-c2cn3nc(-c4nccn4C)nc(N[C@H]4C[C@H](OC)C4)c3c2-c2ccccc2)c1OC` [Compound 219, 6-(2,3-Dimethoxyphenyl)-N-((1r,3r)-3-methoxycyclobutyl)-2-(1-methyl-1H-imidazol-2-yl)-5-phenylpyrrolo[2,1-f][1,2,4]triazin-4-amine] the inhibition at 20 µM [1] was 1 to 25% and the “% inh” value [2] was “D (85-100% inhibition)”.
For `COc1ccnc(Oc2nc(-c3nccn3C)nn3cc(-c4ccn(C)n4)c(C)c23)c1` [Compound 220, 4-((4-Methoxypyridin-2-yl)oxy)-5-methyl-2-(1-methyl-1H-imidazol-2-yl)-6-(1-methyl-1H-pyrazol-3-yl)pyrrolo[2,1-f][1,2,4]triazine], the inhibition at 20 µM [1] was 26 to 49% and the “% inh” value [2] was “A (1-25% inhibition)”.
`Cc1c(-c2ccn(C)n2)cn2nc(-c3nccn3C)nc(Nc3cc4c(cn3)CCO4)c12` [Compound 221, N-(5-Methyl-2-(1-methyl-1H-imidazol-2-yl)-6-(1-methyl-1H-pyrazol-3-yl)pyrrolo[2,1-f][1,2,4]triazin-4-yl)-2,3-dihydrofuro[3,2-c]pyridin-6-amine] was tested, and the inhibition at 20 µM [1] was 76 to 100% and the “% inh” value [2] was “A* (1-25% activation)”.
In the case of `Cc1c(-c2ccn(C)n2)cn2nc(-c3nccn3C)nc(Nc3cc(N4CCOCC4)ccn3)c12` [Compound 222, 5-Methyl-2-(1-methyl-1H-imidazol-2-yl)-6-(1-methyl-1H-pyrazol-3-yl)-N-(4-morpholinopyridin-2-yl)pyrrolo[2,1-f][1,2,4]triazin-4-amine], the inhibition at 20 µM [1] was 76 to 100% and the “% inh” value [2] was “A* (1-25% activation)”.
`COc1ccnc(N(C)c2nc(-c3nccn3C)nn3cc(-c4ccn(C)n4)c(C)c23)c1` [Compound 223, N-(4-Methoxypyridin-2-yl)-N,5-dimethyl-2-(1-methyl-1H-imidazol-2-yl)-6-(1-methyl-1H-pyrazol-3-yl)pyrrolo[2,1-f][1,2,4]triazin-4-amine] was tested, and the inhibition at 20 µM [1] was 26 to 49% and the “% inh” value [2] was “A (1-25% inhibition)”.
`COc1ccc(Nc2nc(-c3nccn3C)nn3cc(-c4ccn(C)n4)c(C)c23)nc1` [Compound 224, N-(5-Methoxypyridin-2-yl)-5-methyl-2-(1-methyl-1H-imidazol-2-yl)-6-(1-methyl-1H-pyrazol-3-yl)pyrrolo[2,1-f][1,2,4]triazin-4-amine] was tested, and the inhibition at 20 µM [1] was 76 to 100% and the “% inh” value [2] was “C* (46-84% activation)”.
In the case of `COc1ccc(N(C)c2nc(-c3nccn3C)nn3cc(-c4ccn(C)n4)c(C)c23)nc1` [Compound 225, N-(5-Methoxypyridin-2-yl)-N,5-dimethyl-2-(1-methyl-1H-imidazol-2-yl)-6-(1-methyl-1H-pyrazol-3-yl)pyrrolo[2,1-f][1,2,4]triazin-4-amine], the inhibition at 20 µM [1] was 1 to 25% and the “% inh” value [2] was “B (26-49% inhibition)”.
With `Cc1ccc(Nc2nc(-c3nccn3C)nn3cc(-c4ccn(C)n4)c(C)c23)nc1` [Compound 226, 5-Methyl-2-(1-methyl-1H-imidazol-2-yl)-6-(1-methyl-1H-pyrazol-3-yl)-N-(5-methylpyridin-2-yl)pyrrolo[2,1-f][1,2,4]triazin-4-amine] the inhibition at 20 µM [1] was 76 to 100% and the “% inh” value [2] was “A* (1-25% activation)”.
